Patent publication US4393228A, “Epoxysuccinic acid derivatives” (Taisho Pharmaceutical Co., Ltd., priority 1977, dated 1983)

What follows are molecules tested against T1, papain (Carica papaya, UniProt P00784) (assay: Papain inhibitory activity (milk casein digestion)). Conditions: papain 80 μg/ml 0.5 ml, cysteine, pH 6.8, 1% milk casein, 40° C., 10 minutes.
T1 construct: purchased Sigma Chem. Co
T1 sequence (P00784 134-345): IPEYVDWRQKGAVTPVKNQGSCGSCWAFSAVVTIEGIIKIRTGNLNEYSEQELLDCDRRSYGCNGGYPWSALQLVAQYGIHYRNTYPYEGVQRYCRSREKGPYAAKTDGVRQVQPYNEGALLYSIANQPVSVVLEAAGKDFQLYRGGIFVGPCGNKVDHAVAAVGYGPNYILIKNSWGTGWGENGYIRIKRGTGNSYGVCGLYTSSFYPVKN
Format: biochemical
How it was run: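 Papain (80 μg/ml stock) preincubated 15 min at 40 °C with inhibitor, cysteine/EDTA activator and phosphate buffer pH 6.8. Then 1% milk casein digested 10 min at 40 °C, stopped with trichloroacetic acid and filtered; filtrate absorbance at 280 nm gives percent inhibition versus no-inhibitor control.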

Question: For `O=C(OCCC12CC3CC(CC(C3)C1)C2)[C@@H]1O[C@H]1C(=O)OCCC12CC3CC(CC(C3)C1)C2` (relative stereo) [EP-49, di-2-(1-adamantane)ethyl epoxysuccinate], which “ID50 (amount of inhibitor for 50% inhibition)” value is on record?
Answer: 0.85 γ

Question: For `O=C(O)C1OC1C(=O)OC1CC(Cl)CCC1Br` (stereo not drawn) [EP-12, 2'-cis-bromo-5'-trans-chlorocyclohexyl potassium epoxysuccinate], which “ID50 (amount of inhibitor for 50% inhibition)” value is on record?
Answer: 0.07 γ

Question: How did the “ID50 (amount of inhibitor for 50% inhibition)” value turn out when `CC(C)[C@H](NC(=O)C1OC1C(=O)OC1CCCC1)C(=O)OCc1ccccc1` (stereo partly drawn) [EP-205, N-(3-cyclopentyloxycarbonyloxirane-2-carbonyl)-L-valine benzyl ester] was run?
Answer: 0.82 γ

Question: With `COC(=O)[C@H](CCCNC(=N)N[N+](=O)[O-])NC(=O)C1OC1C(=O)OCc1ccccc1` (stereo partly drawn) [EP-184, N^α -(3-benzyloxycarbonyloxirane-2-carbonyl)-N^G -nitro-L-arginine methyl ester] as the molecule, how does the “ID50 (amount of inhibitor for 50% inhibition)” value read?
Answer: 2.91 γ

Question: Which “ID50 (amount of inhibitor for 50% inhibition)” value does the source give for `O=C(O)[C@@H]1O[C@H]1C(=O)OCC1CCCC1` (relative stereo) [EP-44, cyclopentanemethyl potassium epoxysuccinate] here?
Answer: 0.07 γ

Question: `O=C(O)[C@@H]1O[C@H]1C(=O)OCCC1CCCC1` (relative stereo) [EP-60, 2-cyclopentaneethylpotassium epoxysuccinate] was tested. Which “ID50 (amount of inhibitor for 50% inhibition)” value did it give?
Answer: 0.10 γ

Question: `O=C(O)[C@H]1O[C@@H]1C(=O)OCc1ccc(I)cc1Br` (relative stereo) [EP-120, 2'-bromo-4'-iodobenzyl potassium epoxysuccinate] was tested. Which “ID50 (amount of inhibitor for 50% inhibition)” value did it give?
Answer: 0.40 γ

Question: How did the “ID50 (amount of inhibitor for 50% inhibition)” value turn out when `CCCCOC(=O)[C@H](CC(C)C)NC(=O)C1OC1C(=O)OCc1ccco1` (stereo partly drawn) [EP-217, N-[3-furfuryloxycarbonyloxirane-2-carbonyl]-L-leucine n-butyl ester] was run?
Answer: 0.25 γ

Question: Which “ID50 (amount of inhibitor for 50% inhibition)” value does the source give for `CC(OC(=O)C1OC1C(=O)N[C@@H](CCCCN)C(=O)OCc1ccccc1)C1CCCC1` (stereo partly drawn) [EP-206, N-[3-(1'-cyclopentylethoxy)-carbonyloxirane-2-carbonyl]-L-lysine benzyl ester] here?
Answer: 0.12 γ

Question: How did the “ID50 (amount of inhibitor for 50% inhibition)” value turn out when `C#CCOC(=O)C1OC1C(=O)N[C@@H](CCCCNC(=O)OCc1ccccc1)C(=O)OCc1ccccc1` (stereo partly drawn) [EP-165, N^α -(3-propargyloxycarbonyloxirane-2-carbonyl)-N^ε -carbobenzoxy-L-lysine benzyl ester] was run?
Answer: 22.50 γ

Question: With `CCOC(=O)C1OC1C(=O)N[C@@H](Cc1c[nH]cn1)C(=O)OC` (stereo partly drawn) [EP-185, N^α -(3-ethoxycarbonyloxirane-2-carbonyl)-L-histidine methyl ester] as the molecule, how does the “ID50 (amount of inhibitor for 50% inhibition)” value read?
Answer: 14.05 γ

Question: With `O=C(O)[C@@H]1O[C@H]1C(=O)OCc1cccc(C(F)(F)F)c1` (relative stereo) [EP-100, 3'-trifluoromethylbenzyl potassium epoxysuccinate] as the molecule, how does the “ID50 (amount of inhibitor for 50% inhibition)” value read?
Answer: 0.10 γ

Question: For `O=C(O)[C@@H]1O[C@H]1C(=O)OCc1cccs1` (relative stereo) [EP-80, 2'-thenyl potassium epoxysuccinate], which “ID50 (amount of inhibitor for 50% inhibition)” value is on record?
Answer: 0.32 γ

Question: How did the “ID50 (amount of inhibitor for 50% inhibition)” value turn out when `CCOC(=O)[C@H](CCCCNC(=O)OCc1ccccc1)NC(=O)C1OC1C(=O)[O-].[K+]` (stereo partly drawn) [EP-195, N^α -(3-carboxyoxirane-2-carbonyl)-N^ε -carbobenzoxy-L-lysine ethyl ester potassium salt] was run?
Answer: 0.43 γ

Question: `Cc1cc(C)cc(COC(=O)[C@@H]2O[C@H]2C(=O)OCc2cc(C)cc(C)c2)c1` (relative stereo) [EP-93, di-3',5'-dimethylbenzyl epoxysuccinate] was tested. Which “ID50 (amount of inhibitor for 50% inhibition)” value did it give?
Answer: 4.31 γ

Question: For `O=C(OCCCC1CCCCC1)[C@@H]1O[C@H]1C(=O)OCCCC1CCCCC1` (relative stereo) [EP-65, di-3-cyclohexanepropyl epoxysuccinate], which “ID50 (amount of inhibitor for 50% inhibition)” value is on record?
Answer: 69.44 γ

Question: How did the “ID50 (amount of inhibitor for 50% inhibition)” value turn out when `O=C(CCNC(=O)[C@@H]1O[C@H]1C(=O)OCCCCC1CCCCC1)OCc1ccccc1` (relative stereo) [EP-208, N-[3-(4'-cyclohexylbutoxy)-carbonyloxirane-2-carbonyl]-β-alanine benzyl ester] was run?
Answer: 13.12 γ

Question: For `O=C(O)[C@@H]1O[C@H]1C(=O)O[C@H]1CC[C@H](Cl)CC1` (relative stereo) [EP-20, 4'-trans-chlorocyclohexyl potassium epoxysuccinate], which “ID50 (amount of inhibitor for 50% inhibition)” value is on record?
Answer: 0.06 γ

Question: `CCOC(=O)CNC(=O)[C@@H]1O[C@H]1C(=O)OCc1ccc2c(Br)cccc2c1` (relative stereo) [EP-220, N-[3-(5'-bromo-2-naphthylmethoxy)-carbonyloxirane-2-carbonyl]-glycine ethyl ester] was tested. Which “ID50 (amount of inhibitor for 50% inhibition)” value did it give?
Answer: 9.86 γ

Question: `CC1CCCC(C)C1OC(=O)C1OC1C(=O)OC1C(C)CCCC1C` (stereo not drawn) [EP-13, di-2',6'-trans-dimethylcyclohexyl epoxysuccinate] was tested. Which “ID50 (amount of inhibitor for 50% inhibition)” value did it give?
Answer: 2.50 γ

Question: How did the “ID50 (amount of inhibitor for 50% inhibition)” value turn out when `O=C(NCCC[C@H](NC(=O)C1OC1C(=O)OCc1ccccc1)C(=O)OCc1ccccc1)OCc1ccccc1` (stereo partly drawn) [EP-182, N^α -(3-benzyloxycarbonyloxirane-2-carbonyl)-N^δ -carbobenzoxy-L-ornithine benzyl ester] was run?
Answer: 5.95 γ

Question: `CCCCOC(=O)[C@H]1O[C@@H]1C(=O)O` (relative stereo) [EP-142, n-butyl potassium epoxysuccinate] was tested. Which “ID50 (amount of inhibitor for 50% inhibition)” value did it give?
Answer: 0.29 γ

Question: Which “ID50 (amount of inhibitor for 50% inhibition)” value does the source give for `O=C(O)[C@@H]1O[C@H]1C(=O)OCc1c(Cl)ccc2ccccc12` (relative stereo) [EP-84, 2'-chloro-1'-naphthylmethyl potassium epoxysuccinate] here?
Answer: 0.29 γ

Question: Which “ID50 (amount of inhibitor for 50% inhibition)” value does the source give for `O=C(O)[C@H]1O[C@@H]1C(=O)Oc1ccccc1` (relative stereo) [EP-136, phenyl hydrogen epoxysuccinate] here?
Answer: 2.72 γ

Question: For `CC(C)[C@H](NC(=O)C1OC1C(=O)OCc1ccc(Br)cc1)C(=O)OCc1ccccc1` (stereo partly drawn) [EP-162, N-(3-p-bromobenzyloxycarbonyloxirane-2-carbonyl)-L-valine benzyl ester], which “ID50 (amount of inhibitor for 50% inhibition)” value is on record?
Answer: 0.80 γ

Question: With `O=C(OCc1ccc(Br)c(Cl)c1)[C@H]1O[C@@H]1C(=O)OCc1ccc(Br)c(Cl)c1` (relative stereo) [EP-125, di-3'-chloro-4'-bromobenzyl epoxysuccinate] as the molecule, how does the “ID50 (amount of inhibitor for 50% inhibition)” value read?
Answer: 2.90 γ

Question: Which “ID50 (amount of inhibitor for 50% inhibition)” value does the source give for `O=C(OC1CC(Cl)CC(Cl)C1)C1OC1C(=O)OC1CC(Cl)CC(Cl)C1` (stereo not drawn) [EP-23, di-3',5'-trans-dichlorocyclohexyl epoxysuccinate] here?
Answer: 2.45 γ

Question: For `O=C(O)[C@H]1O[C@@H]1C(=O)OCc1ccc(I)cc1` (relative stereo) [EP-112, p-iodobenzyl potassium epoxysuccinate], which “ID50 (amount of inhibitor for 50% inhibition)” value is on record?
Answer: 0.32 γ

Question: Which “ID50 (amount of inhibitor for 50% inhibition)” value does the source give for `O=C(O)[C@H]1O[C@@H]1C(=O)OCC=Cc1ccccc1` (relative stereo) [EP-134, 3'-phenyl-2'-propenyl potassium epoxysuccinate] here?
Answer: 0.71 γ

Question: With `O=C(OCCc1ccccc1)[C@H]1O[C@@H]1C(=O)OCCc1ccccc1` (relative stereo) [EP-129, di-2'-phenylethyl epoxysuccinate] as the molecule, how does the “ID50 (amount of inhibitor for 50% inhibition)” value read?
Answer: 0.78 γ

Question: `O=C(O)C1OC1C(=O)OCC1CC=CCC1` (centres unmarked) [EP-70, 3-cyclohexenemethylpotassium epoxysuccinate] was tested. Which “ID50 (amount of inhibitor for 50% inhibition)” value did it give?
Answer: 0.08 γ

Question: Which “ID50 (amount of inhibitor for 50% inhibition)” value does the source give for `O=C(O)[C@H]1O[C@@H]1C(=O)OCc1ccccc1Cl` (relative stereo) [EP-108, o-chlorobenzyl potassium epoxysuccinate] here?
Answer: 0.09 γ
